# Values quoted from earlier work, collected in EP2919756B1, “SOLID LIPID NANOPARTICLES OF ROXITHROMYCIN FOR HAIR LOSS OR ACNE” (Gdanski Uniwersytet Medyczny, priority 2012, dated 2014).
# How the values were obtained:
# [1] = system: human hair follicles; settings: human hair follicles in vitro
# [2] = external application of 0.5% solution for 24 weeks
compound,measurement,setting,value
"CC[C@H]1OC(=O)[C@H](C)[C@@H](O[C@H]2C[C@@](C)(OC)[C@@H](O)[C@H](C)O2)[C@H](C)[C@@H](O[C@@H]2O[C@H](C)C[C@H](N(C)C)[C@H]2O)[C@](C)(O)C[C@@H](C)/C(=N\OCOCCOC)[C@H](C)[C@@H](O)[C@]1(C)O [roxithromycin, Roxithromycin]",hair elongation,[1],caused hair elongation
same,follicle's passage to the catagen phase,[1]; through inhibition of keratinocyte apoptosis,inhibit the follicle's passage to the catagen phase
same,local or systemic side effects or undesirable action,[2],no local or systemic side effects or undesirable action was recorded
same,thickening of the hair,[2],Substantial thickening of the hair
same,restored hair growth,[2]; patients with androgenic hair loss,more than half of the patient population
